# From patent US20080063601A1, “Compositions and methods relating to polycystic kidney disease” (priority 2004, published 2008)
# Like-named read-outs stand apart in the source and are kept apart here.
# Key:
# HeLa cells [1] = assay: [3H]-triptolide labeling followed by cellular fractionation; format: binding
# Source text: To address first the nature of triptolide binding within the cell, Applicant determined this interaction was reversible as [^3H]-triptolide labeling was out competed by subsequent addition of excess unlabeled triptolide (FIG. 4A). […] Although 25% of the total cellular counts (i.e., representing bound triptolide) were found in the cytosolic fraction, it is uncertain whether this is specific binding or simply that free triptolide had dissociated from its binding protein due to experimental manipulation during fractionation. Since the data thus far had only shown binding within whole cells, Applicant next determined if this triptolide binding protein could be further characterized and/or enriched by its association with chromatographic reagents. HeLa cells were once again labeled with [^3H]-triptolide and total cell lysates were then passed over the anion exchange resin DEAE. […] Importantly, Applicant also observed that [^3H]-triptolide would only bind to intact cells in culture but would not bind to any component of a total cellular lysate as assessed by interaction with the DEAE resin. […]
# For cellular fractionation studies, cells were allowed to swell on ice and lysed by passage through a syringe in a hypotonic lysis buffer (10 mM Tris-HCl+complete protease inhibitors). […] Gel slices were measured out in equal increments and the molecular weight range of each was calculated. […]
# HeLa cells [2] = assay: [3H]-triptolide competition binding in intact HeLa cells
# Method: To gain insight into triptolide's mechanism of action Applicant sought to determine its specific binding activity utilizing a system employing [^3H]-triptolide. In addition to competition with 1 μM or 10 μM unlabeled triptolide, Applicant also measured the binding affinities of triptolide analogs (FIG. 3A). These analogs have been previously described and differ structurally from triptolide in the hydrolysis of the 12,13 epoxide (2), and formation of the ketone at the C-14 hydroxyl (3) (FIG. 3A). […] The effective interaction of these analogs with a presumed triptolide binding entity led us to their use in subsequent experiments addressing the mode of triptolide's biological functions.
# Labeling studies were performed by the addition of approximately 30 nM [^3H]-triptolide directly into the culture media for one hour at 37° C. For cold competition studies, 1 μM triptolide was incubated with the cells for one hour before or after the addition of [^3H]-triptolide. Triptolide analog studies followed a similar protocol where concentrations used for competition were either 1 or 10 μM added before [^3H]-triptolide. Medium was removed and cells were washed 3× in cold PBS. Total cell lysates were prepared (150 mM NaCl, 50 mM Tris-HCl pH 7.4, 1 mM EDTA, 1% Triton X-100, and Complete™ protease inhibitors (Roche)) and protein was quantitated before measuring the [^3H]-triptolide binding activity via liquid scintillation.
# Pkd2^+/− cells = assay: Viability of Pkd2+/− kidney epithelial cells; format: cell-based, murine; conditions: Pkd2+/− cells (one copy each of Pkd1 and Pkd2), 100 nM
# NFκB transactivation = assay: κB-luciferase reporter assay of TNF-α induced NFκB transactivation in HeLa cells; format: cell-based; conditions: for inhibition at 0.1 µM: Homo sapiens
# Method: Having established that triptolide induced cell death is dependent upon free calcium concentration, Applicant next determined whether this was also a requirement for the inhibition of NFκB transcription. HeLa cells were transiently transfected with the κB-luciferase reporter construct for 8 hours before being washed and then cultured in the presence or absence of calcium containing medium for 16 hours. Triptolide (100 nM) was pre-incubated with cells for 1 hour before addition of 15 ng/ml of TNF-α for 4 hours.
# As an additional experiment, transcriptional activity was also assessed by site-directed calcium buffering. HeLa cells were co-transfected with the κB-luciferase plasmid as well as one of the following constructs: GFP empty vector, NES-PV-GFP, or NLS-PV-GFP and proper GFP localization was confirmed. […]
# NFκB transactivation was examined using the κB-luciferase reporter construct. […] Cells were assessed for NFκB driven luciferase expression after an additional five hours of incubation, at which time TNF-α had induced transcriptional activity by approximately 15-fold in control cells. […] The results thus far support a divergence of triptolide-mediated functions: the pathway regulating growth arrest/death is more sensitive to triptolide and calcium than the mechanism leading to transcriptional repression of NFκB.
# A triple κB promoter-Luciferase reporter construct was a gift of Sankar Ghosh (Yale University). […] The transfection efficiency of HeLa was determined to be 80-90%, and all samples were normalized to protein concentration. Luciferase assays were performed using the Firefly luciferase kit as per manufacturer's protocol (Promega) and results obtained on the Wallac Victor2 1420 Multilabel Counter (Perkin Elmer).
# HeLa cells [3] = assay: [3H]-triptolide binding in presence or absence of extracellular calcium
# Source text: To understand further the nature of triptolide's interaction within the cell, Applicant altered cell culture conditions to examine if [^3H]-triptolide binding would be affected. […] Additionally, it has been established that aberrant calcium signaling can result in cell death (Rizzuto, et al., 2003, Oncogene 22, 8619-8627; Orrenius, et al., 2003, Nat Rev Mol Cell Biol 4, 552-565). Due to triptolide's own link with NFκB and NF-AT and its propensity to induce cell death, Applicant assessed whether triptolide binding could be modulated by free calcium levels. Adherent HeLa cells were cultured in the presence or absence of calcium containing medium for 16 hours before [^3H]-triptolide addition. […] It is also noteworthy that an increase in cell density (not cell number) also increases triptolide binding regardless of calcium levels. Additionally, specific calcium chelation by 10 mM EGTA for one hour in calcium containing medium increased binding by nearly 2 fold.
# Labeling studies were performed by the addition of approximately 30 nM [^3H]-triptolide directly into the culture media for one hour at 37° C. […] Total cell lysates were prepared (150 mM NaCl, 50 mM Tris-HCl pH 7.4, 1 mM EDTA, 1% Triton X-100, and Complete™ protease inhibitors (Roche)) and protein was quantitated before measuring the [^3H]-triptolide binding activity via liquid scintillation.
smiles,measurement,setting,value
CC(C)[C@]12O[C@H]1[C@@H]1O[C@]13[C@]1(O[C@H]1C[C@H]1C4=C(CC[C@@]13C)C(=O)OC4)[C@@H]2O [triptolide],cellular fraction that binds [3H]-triptolide,"HeLa cells [1]; S-100, P-100, insoluble fractions",predominantly to the membrane fraction (P-100)
same,total cellular counts (bound triptolide) found in the cytosolic fraction,HeLa cells [1]; S-100 fraction,25%
same,nature of triptolide binding (out-competed by subsequent excess unlabeled triptolide),HeLa cells [2]; 1 μM cold triptolide after [3H]-triptolide,reversible
same,displacement of / competition for [3H]-triptolide binding,HeLa cells [2]; 1 or 10 μM unlabeled competitor for 1 h before approx. 30 nM [3H]-triptolide for 1 h,significantly competed
same,cell viability,Pkd2^+/− cells,rapid cell death within 24 hours
same,inhibition of TNF-α driven transcriptional activity of NFκB,"NFκB transactivation; 10 nM, 1 h pre-treatment + 5 h TNF-α",did not inhibit
same,luciferase induction remaining with compound + TNF-α,"NFκB transactivation; 10 nM, after 24 hours",> 20 fold
same,inhibition of TNF-α driven transcriptional activity of NFκB,"NFκB transactivation; 25 nM, 1 h pre-treatment + 5 h TNF-α",did not inhibit
same,suppression of TNF-α driven NFκB activity,"NFκB transactivation; 50 nM, 1 h pre-treatment + 5 h TNF-α",20%
same,suppression of NFκB transactivation with site-directed calcium buffering,"NFκB transactivation; 100 nM, GFP vector, NES-PV-GFP or NLS-PV-GFP",retained the ability to suppress NFκB transactivation
same,inhibition of TNF-α induced NFκB transactivation,"NFκB transactivation; 100 nM, presence and absence of calcium",effectively inhibited
same,NFκB activity at higher concentration,"NFκB transactivation; 1 or 10 μM, 5 hours with TNF-α",attenuated further
same,inhibition at 0.1 µM,"NFκB transactivation; 0.1 μM, 5 hours with TNF-α, read-out: NFκB inhibition",> 60%
same,inhibition at 0.1 µM,"NFκB transactivation; 100 nM, 1 h pre-treatment + 5 h TNF-α, read-out: inhibition of TNF-α driven NFκB activity (average)",60%
same,increase of [3H]-triptolide binding on calcium chelation,HeLa cells [3]; 10 mM EGTA 1 h in calcium containing medium,~2 fold
same,increase of [3H]-triptolide binding in absence of extracellular calcium,HeLa cells [3]; calcium-free medium 16 h before [3H]-triptolide,2-4 fold
